Each structure is given as a SMILES string. Counter-ions that a name gives are not always drawn.

The test system of assay [1] is hMSR1/ApoE-KO mice. Kind of assay: Anti-type II collagen antibody-induced arthritis (CAIA), clinical scores. The assay is classed as in vivo, mouse. Here is the method: An MSR1-non-cytotoxic antibody drug (ncADC) conjugate was tested in anti-type II collagen antibody-induced arthritis (CAIA) in vivo; cytokine detection in inflamed joints using Proinflammatory Panel 1 (mouse) Multiplex Immunoassay kit (MSD)
To further examine the anti-inflammatory effect of the anti-MSR1 Ab-steroid ncADC, the ncADC was evaluated in a collagen-antibody induced arthritis (CAIA) model in vivo. For the model, mice homozygously expressing human MSR1 extracellular domain and transmembrane domain in place of mouse MSR1 extracellular and transmembrane domains (humanized MSR1) and with a homozygous deletion of the ApoE gene (ApoE-KO) were utilized (resulting mice referred to as hMSR1/ApoE-KO mice).
(§1) To induce CAIA, hMSR1/ApoE-KO mice were intraperitoneally injected with an 8 mg/kg mixture of five anti-type II collagen mAbs (Chondrex, Cat #53100, Lot #180140) on day 0, followed by intraperitoneal administration with 50 μg lipopolysaccharide (LPS; 0111:B4; Chondrex, Cat #53100, Lot #180141) on day 3. Severity of the […] levels of arthritis was graded up to 13 days after mAb injection in each of the four limbs per mouse on a […]. The criteria for the grading were as follows: 0, normal; 1, mild redness and swelling of ankle/wrist or individual digits; 2, moderate redness and swelling of ankle/wrist; 3, severe redness and swelling of the entire paw including the digits; 4, maximal swelling in limbs involving multiple joints. The maximum value of the sum of the scores obtained from the four limbs of each mouse was 16. […] PBS, unconjugated anti-MSR1 Ab (H1H21234N-N297Q) and free steroid payload (P4-1), were intraperitoneally injected every other day or daily (referred to as P4-1 ED). All mice were sacrificed on day 13 and inflamed patella were collected for subsequent homogenization and cytokine detection.

The test system of assay [2] is hMSR1/ApoE-KO mice. Kind of assay: CAIA, pro-inflammatory cytokines in joint homogenates. It is filed as in vivo, mouse. Here is the method:
as §1
Inflamed knee patella were collected in 2 mL microcentrifuge tubes containing two tungsten carbide beads (Qiagen, Cat #69997) and 500 μL of T-per buffer (Thermo Scientific, Cat #78510, Lot #QF217759) containing protease inhibitor cocktail and 0.5M EDTA (Thermo Scientific, Cat #78444, Lot #RF231047). Tissues were disrupted at the frequency of 30s^−1 for 10 minutes using Qiagen Tissue Lyser II, centrifuged at 14,000 rpm for 7 minutes, and then supernatants were collected without disturbing the pellet. Cytokine concentrations in the supernatants were measured using a Proinflammatory Panel 1 (mouse) multiplex immunoassay kit (MesoScale Discovery, Cat #K15048D) according to the manufacturer's instructions. In brief, 50 μL/well of calibrators and samples (diluted in Diluent 41) were added to the plates pre-coated with capture antibodies and incubated at room temperature while shaking at 700 rpm for 2 hours. The plates were then washed 3 times with 1×PBS containing 0.05% (w/v) Tween-20, followed by the addition of 25 μL of Detection Antibody Solution diluted in Diluent 45. After 2-hour incubation at room temperature while shaking, the plates were washed 3 times, and 150 μL of 2× Read Buffer was added to each well. Electrochemiluminescence was immediately read on MSD Spector© instrument. Cytokine concentrations were normalized per total protein content in tissue homogenates measured using Bradford protein assay (BioRad, Cat #5000006, Lot #64144266). Data analysis was performed using GraphPad Prism™ software. Statistical significance within the groups was determined by one-way Anova with Turkey's multiple comparison post-test (*p<0.01; **p<0.001; ***p<0.0001).

The subject of another assay is LXR (THP1/LXR-Luc cells). Kind of assay: LXR-luciferase reporter bioassay (Example 31). It is filed as cell-based, human. The conditions noted are these: signal to noise, ratio of RLU of standard one over standard eight; 48 hours. An excerpt: Generation of assay cell line. To test the efficacy of anti-MSR1 antibody-LXR conjugates in vitro, a cell-based LXR responsive luciferase reporter assay was developed. To generate the assay cell line, a LXR regulated luciferase reporter gene [Cignal Lenti LXR Reporter (luc) kit (Qiagen, Cat #CLS-001 L)] was transduced into THP1 cells, and cells were selected for two weeks in puromycin. The lentivirus expresses the firefly luciferase gene under the control of a minimal CMV promoter and tandem repeats of the LXR transcriptional response element. The resulting cell line is referred to as THP1/LXR-Luc cells.
Assay protocol. THP1/LXR-Luc cells were seeded onto 96 well plates at 40,000 cells/well in media containing RPMI supplemented with 10% FBS and pencillin/streptomycin and subsequently differentiated with 200 nM Phorbol Myristate Acetate (PMA) for 3 days. After the 3-day differentiation period, three-fold serial dilutions of antibody drug conjugates, unconjugated antibodies, or free payloads in fresh media were added to the cells at final concentration ranging from 100 nM to 0.01 nM. Media alone served as a blank control. Forty-eight hours later, luciferase activity was determined after the addition of One-Glo™ reagent (Promega, Cat #E6130) to each well. Relative light units (RLUs) were measured on a Victor luminometer (PerkinElmer) and EC50 values were determined using a four-parameter logistic equation over a 10-point dose response curve (GraphPad Prism). The signal to noise (S/N) was determined by calculating the ratio of RLU of standard one over RLU of standard eight for each of the unconjugated anti-MSR1 antibodies or free payloads. “LP #” represents a linker-payload for which the corresponding structures are provided elsewhere herein, and “P #” represents a payload for which the corresponding structures are provided elsewhere herein.

Setting [3] is: joint homogenates, 2.95 mg/kg every 2 days.

On to `CCC[C@@H]1O[C@@H]2C[C@H]3[C@@H]4C[C@H](F)C5=CC(=O)C=C[C@]5(C)[C@@]4(F)[C@@H](O)C[C@]3(C)[C@]2(C(=O)CN)O1` [P4-1, (1S,2S,4R,6R,8S,9S,11S,12R,13S,19S)-8-(2-Aminoacetyl)-12,19-difluoro-11-hydroxy-9,13-dimethyl-6-propyl-5,7-dioxapentacyclo[10.8.0.0^2,9.0^4,8.0^13,18]icosa-14,17-dien-16-one], for which the “Clinical Score” value in the assay with hMSR1/ApoE-KO mice [1] (2.95 mg/kg, every 2 days d6-d12) is listed as 9.4 ± 2.46. Besides, the “inhibition of CAIA” value with hMSR1/ApoE-KO mice [1] (dosed every day (P4-1ED), compared with H1H21234N-N297Q-P4-3 at 21 mg/kg) was “Comparable inhibition of CAIA”. For the same molecule, in the assay on hMSR1/ApoE-KO mice [1] (every other day), the “severity of CAIA (clinical scores)” value is given as “did not attenuate CAIA”. The “pro-inflammatory cytokine levels in inflamed joints” value in the assay with hMSR1/ApoE-KO mice [2] (administered every other day) is on record as “No effect”. Further, in the assay with hMSR1/ApoE-KO mice [2] (setting [3]), the “Cytokines IL-1β” value is given as 20.6 ± 4.3 pg per mg of total protein, the “Cytokines IL-6” value was 131.4 ± 40.9 pg per mg of total protein, the “Cytokines KC-GRO” value was 8.9 ± 9 pg per mg of total protein and the “Cytokines TNF-α” value was 8.3 ± 1.9 pg per mg of total protein.

As to `C[C@]1(C(=O)NC(=O)[C@@]2(C)CCC[C@]3(C)c4cc(NC(=O)[C@@H](N)CCCCN)ccc4CC[C@@H]23)CCC[C@]2(C)c3cc(O)ccc3CC[C@@H]12` [P7, (1S,4aS,10aR)-N-[(1S,4aS,10aR)-6-Hydroxy-1,4a-dimethyl-1,2,3,4,4a,9,10,10a-octahydrophenanthrene-1-carbonyl]-6-[(2S)-2,6-diaminohexanamido]-1,4a-dimethyl-1,2,3,4,4a,9,10,10a-octahydrophenanthrene-1-carboxamide; trifluoroacetic acid salt], in the assay with LXR (THP1/LXR-Luc cells), the S/N is reported as 8.9.

With `C[C@]1(C(=O)NC(=O)[C@@]2(C)CCC[C@]3(C)c4cc(NC(=O)[C@@H](N)CO)ccc4CC[C@@H]23)CCC[C@]2(C)c3cc(O)ccc3CC[C@@H]12` [P5, (1S,4aS,10aR)-6-((S)-2-Amino-3-hydroxypropanamido)-N-((1S,4aS,10aR)-6-hydroxy-1,4a-dimethyl-1,2,3,4,4a,9,10,10a-octahydrophenanthrene-1-carbonyl)-1,4a-dimethyl-1,2,3,4,4a,9,10,10a-octahydrophenanthrene-1-carboxamide], the S/N in the assay with LXR (THP1/LXR-Luc cells) is on record as 5.7.

As for `C[C@]1(C(=O)NC(=O)[C@@]2(C)CCC[C@]3(C)c4cc(NC(=O)[C@@H](N)CCC(=O)O)ccc4CC[C@@H]23)CCC[C@]2(C)c3cc(O)ccc3CC[C@@H]12` [P6, (4S)-4-Amino-4-{[(4bS,8S,8aR)-8-{[(1S,4aS,10aR)-6-hydroxy-1,4a-dimethyl-1,2,3,4,4a,9,10,10a-octahydrophenanthrene-1-carbonyl]carbamoyl}-4b,8-dimethyl-4b,5,6,7,8,8a,9,10-octahydrophenanthren-3-yl]carbamoyl}butanoic acid; trifluoroacetic acid salt], the S/N in the assay on LXR (THP1/LXR-Luc cells) turned out to be 8.3.
